# Source: patent US5618943A, “Acetylenes disubstituted with a 5 OXO substituted tetrahydronaphthyl group and with an aryl or heteroaryl group having retinoid-like biological activity” (Allergan, priority 1994, dated 1997)
# System: ornithine decarboxylase (ODC)
# Assay: not given
# Details: literature statement; cited from earlier work
row,SMILES,inhibition of TPA induction of ODC activity (in words)
1,CC1=C(/C=C/C(C)=C/C=C/C(C)=C/C(=O)O)C(C)(C)CCC1 [Retinoic acid],inhibits this induction of ODC activity

# System: ornithine decarboxylase (ODC)
# Assay: ODC assay: inhibition of TPA induction of ornithine decarboxylase (retinoic acid-like activity)
# Format: biochemical
# Details: concentration of the test compound which causes 80% inhibition in the ODC assay; TPA-induced
# Source text: The retinoic acid-like activity of these compounds is confirmed through the classic measure of retinoic acid activity involving the effects of retinoic acid on ornithine decarboxylase. The original work on the correlation between retinoic acid and decrease in cell proliferation was done by Verma & Boutwell, Cancer Research, 1977, 37,2196-2201. That reference discloses that ornithine decarboxylase (ODC) activity increased precedent to polyamine biosynthesis. It has been established elsewhere that increases in polyamine synthesis can be correlated or associated with cellular proliferation. Thus, if ODC activity could be inhibited, cell hyperproliferation could be modulated. Although all cases for ODC activity increases are unknown, it is known that 12-0-tetradecanoylphorbol-13-acetate (TPA) induces ODC activity. […] Activity of exemplary compounds of the present invention in the abovedescribed ODC assay is disclosed in Table 2 which provides the IC80 concentration for the respective exemplary compound. ("IC80 " is that concentration of the test compound which causes 80% inhibition in the ODC assay. By analogy, "IC60, for example, is that concentration of the test compound which causes 60% inhibition in the ODC assay.)
row,SMILES,IC80 conc
1,"CCOC(=O)c1ccc(C#Cc2ccc3c(c2)C(C)(C)CCC3=O)cc1 [Compound 1, Ethyl 4-[(5,6,7,8-tetrahydro-8,8-dimethyl-5-oxonaphth-2-yl)ethynyl]benzoate]",1.60 nmols
2,"CCOC(=O)c1ccc(C#Cc2ccc3c(c2)C(=O)CCC3(C)C)cc1 [Compound 2, Ethyl 4-[(5,6,7,8-tetrahydro-8,8-dimethyl-5-oxonaphth-3-yl)ethynyl]benzoate]",0.85 nmols
3,"CCOC(=O)c1ccc(C#Cc2ccc3c(c2)C(C)(C)CCC3=O)nc1 [Compound 5, Ethyl 6-[(5,6,7,8-tetrahydro-8,8-dimethyl-5-oxonaphth-2-yl)ethynyl]nicotinate]",113 nmols
4,"CC1(C)CCC(=O)c2ccc(C#Cc3ccc(C(=O)O)cc3)cc21 [Compound 7, 4-[(5,6,7,8-tetrahydro-8,8-dimethyl-5-oxonaphth-2-yl)ethynyl]benzoic acid]",1.60 nmols
5,"CC1(C)CCC(=O)c2cc(C#Cc3ccc(C(=O)O)cc3)ccc21 [Compound 8, 4-[(5,6,7,8-tetrahydro-8,8-dimethyl-5-oxonaphth-3yl)ethynyl]benzoic acid]",1.37 nmols
6,"CCOC(=O)c1ccc(C#Cc2ccc3c(c2)C2(CCC3(C)C)SCCCS2)cc1 [Compound 58, Ethyl. 4-[[5,6,7,8-tetrahydro-8,8-dimethyl-5-(2-(1,3-dithiane))naphth-3-yl]ethynyl]benzoate]",26.12 nmols
7,"CCOC(=O)c1ccc(C#Cc2ccc3c(c2)C(C)(C)CCC32SCCCS2)cc1 [Compound 59, Ethyl 4-[[5,6,7,8-tetrahydro-8,8-dimethyl-5-(2-(1,3-dithiane))napth-2-yl]ethynyl]benzoate]",23.00 nmols
8,"CC1(C)CCC2(SCCCS2)c2cc(C#Cc3ccc(C(=O)O)cc3)ccc21 [Compound 60, 4-[[5,6,7,8-tetrahydro-8,8-dimethyl-5-(2-(1,3-dithiane))naphth-3-yl]ethynyl]benzoic acid]",2.60 nmols
